Source: US20200222474A1, “COMPOSITIONS AND METHODS FOR INCREASING PHYTOCHEMICAL BIOAVAILABLITY AND BIOACTIVITY” (North Carolina State University, priority 2017, published 2020)

Columns and labels:
[1] = system: L. acidophilus NCFM; assay: Growth of L. acidophilus NCFM on plant glycosides as single carbon source (OD600); assay type: cell-based, Lactobacillus acidophilus; settings: verified by production of lactate and metabolite analysis
Description: (§1) For initial growth and gene expression studies, L. acidophilus NCFM was propagated three times in semi-defined medium (SDM) supplemented with either 1% or 0,5% (w/v) of the plant glycoside or carbohydrate (Table 1). For the RNA-seq analysis, cells were harvested by centrifugation (3,220×10 min, 25° C.) in the mid-exponential phase (OD600=0.6-0.8) and stored at −80° C. for subsequent RNA isolation. For the mass spectrometry metabolite analyses, 200 μt samples were taken at 0, 3, 6, 9, 12, and 24 hours of growth; cells were removed by centrifugation; and supernatants were stored at −80° C. for further analysis.
(§2) Phenotypic growth assays were performed using 1% (v/v) overnight cultures of L. acidophilus strains (Table 2) and other Lactobacillus species (Table 3) grown on SDM supplemented with 1% (w/v) glucose to inoculate 200 μL of SDM supplemented with 1% (w/v) of the examined carbohydrate (0.5% in the case of esculin) in 96-well microplate wells (Corning Costar, Corning, N.Y., USA) in duplicate or triplicate wells, respectively. The microplates were sealed with clear adhesive film, incubated at 37° C. in a Fluostar Optima microplate reader (BMG Labtech, Cary, N.C., USA), and the cell optical density (OD600) was monitored for 30 hours.
(§3) The growth of L. acidophilus NCFM was evaluated on twelve chemically diverse, nutritionally relevant and/or therapeutically active PGs 1; Table 1). FIG. 1A provides the structures and common sources of plant glycoside substrates described herein. The compounds that support growth of Lactobacillus acidophilus are in green. RI: β-D-Glcp; R2: Gentiobioside (β-D-Glcp-(1,6)-D-Glcp); R3: Rutinoside (α-L-Rhaf-(1,6)-D-Glcp). The graph in FIG. 1B depicts plant glycoside utilization analyzed by mass spectrometry and the growth as the maximum OD600. Due to the low solubility of polydatin, OD600 cannot be used as a growth metric and utilization of this compound is confirmed by the production of lactate as well as a high utilization level based on the metabolite analysis.

[2] = Solubility in growth experiments (observation); assay type: physicochemical; settings: in growth medium; precluded OD600 nm as growth metric
Description: as §3

[3] = system: L. acidophilus NCFM; assay: Plant glycoside uptake and metabolite analysis of L. acidophilus NCFM culture supernatants by UHPLC-DAD-Q-TOF-MS; assay type: cell-based, Lactobacillus acidophilus
Description: as §1
Analysis of plant glycoside uptake from L. acidophilus NCFM culture supernatants using mass spectrometry. The supernatants of L. acidophilus NCFM cultures grown on amygdalin, arbutin, esculin or salicin as carbon sources were analyzed during 24 hours by ultra-high performance liquid chromatography-diode array detection-quadruple time of flight mass spectrometry (UHPLC-DAD-Q-TOF-MS). Samples were diluted 1:20 (v/v) with methanol and an injection volume of […] was used. Separation was carried out on an Agilent Poroshell 120 phenyl-hexyl column (2.1×150 mm, 2.7 μm) using the Agilent Infinity 1290 UHPLC system (Agilent Technologies, Santa Clara, Calif., USA) equipped with a UV/vis spectrum diode array detector. Separation was performed at 0.35 mL min-1., 60° C. with a linear gradient consisting of water (A) and acetonitrile (B) both buffered with 20 mM formic acid, starting at 10% B and increased to 100% in 15 min where it was held for 2 min, returned to 10% in 0.1 min and kept for 3 min. MS detection was performed on an Agilent 6550 iFunnel QTOF MS equipped with Agilent Dual Jet Stream electrospray ion source with the drying gas temperature of 160° C. and gas flow of 13 L min^−1, whereas the sheath gas temperature was 300° C. and flow was 16 L min-1. Ionization was conducted in ESI-mode with capillary voltage set to 4000 V and nozzle voltage to 500 V. Mass spectra were recorded as centroid data for m/z 85-1700 in MS mode with an acquisition rate of 10 spectra s^−1. To avoid carry-over, the needle seat was back-flushed for 15 s at 4 mL min-1 with each of: i) isopropanol: 0.2% ammonium hydroxide (w/v) in water (1:1 v/v); ii) acetonitrile with 2% formic acid (w/v); iii) water with 2% formic acid. Data was processed with the Agilent Mass Hunter Qualitative Analysis B.07.00 software package (Agilent Technologies) and molar concentrations were obtained from standard curves of the plant glycosides and their main metabolites. Targeted compound searches were performed using lists of previously identified compounds plus standard chemical modifications.

[4] = system: NCK2418 (ΔLBA0227); assay: Phenotypic growth analysis of deletion mutant (PTS EIIC); assay type: cell-based, Lactobacillus acidophilus; settings: compared with background Δupp strain
Description: as §2
(§4) Construction of gene deletion mutants. The L. acidophilus NCFM genes LBA0225 and LBA0726, both encoding P-Bgl of glycoside hydrolase family 1 (GH1) enzymes in addition to the LBA0227 and LBA0725 genes encoding an EIIC and an EIICBA components of two PTS systems, respectively, were deleted using the upp-based counterselectable gene replacement system. Briefly, in-frame deletions were constructed by amplifying 650-750 bp of the up- and downstream flanking regions of the deletion targets with two primer pairs (e.g., LBA0225A/LBA0225B and LBA0225C/LBA0225D; Table 4). The resulting purified products were joined by splicing using overlap extension PCR (SOE-PCR63) and amplified to establish the deletion alleles. The SOE-PCR products, that include flanking restriction enzyme sites, were cloned within the BamHI and SacI/EcoRI sites of the pTRK935 integration vector and transformed into E. coli EC101. The resulting recombinant plasmids (pTRK1113-6) were confirmed by DNA sequencing and electroporated into L. acidophilus NCK1910 (Table 2) that contains the pTRK669 helper plasmid, and the recovery of the single- and double-crossover recombinants was performed as previously described. Recombinants carrying the new gene deletion alleles were isolated by colony PCR using primer pairs denoted up/down (e.g., LBA0225up/LBA0225down), which anneal to the flanking regions of the amplicons. Sequence integrity and in-frame deletions were verified by DNA sequencing employing the aforementioned primer pairs and primer denoted mid (e.g., LBA0225mid). The mutations were in-frame deletions of 90-96% of the coding regions.
(§5) To establish the functional significance of these two loci, single deletions of each PTS EII and P-Bgl gene, and a double deletion of both P-Bgl genes were constructed using the upp-based counter-selectable gene replacement system (Table 2) and the growth phenotypes of the mutant strains were analyzed (FIG. 3). […]

[5] = system: NCK2424 (ΔLBA0726); assay: Phenotypic growth analysis of deletion mutant (phospho-β-glucosidase); assay type: cell-based, Lactobacillus acidophilus; settings: compared with background Δupp strain
Description: as §2
Construction of gene deletion mutants. The L. acidophilus NCFM genes LBA0225 and LBA0726, both encoding P-Bgl of glycoside hydrolase family 1 (GH1) enzymes in addition to the LBA0227 and LBA0725 genes encoding an EIIC and an EIICBA components of two PTS systems, respectively, were deleted using the upp-based counterselectable gene replacement system. Briefly, in-frame deletions were constructed by amplifying 650-750 bp of the up- and downstream flanking regions of the deletion targets with two primer pairs (e.g., LBA0225A/LBA0225B and LBA0225C/LBA0225D; Table 4). The resulting purified products were joined by splicing using overlap extension PCR (SOE-PCR63) and amplified to establish the deletion alleles. The SOE-PCR products, that include flanking restriction enzyme sites, were cloned within the BamHI and SacI/EcoRI sites of the pTRK935 integration vector and transformed into E. coli EC101. […]
as §5

[6] = system: NCK2422 (ΔLBA0725); assay: Phenotypic growth analysis of deletion mutant (PTS EIICBA); assay type: cell-based, Lactobacillus acidophilus
Description: as §2, §4
To establish the functional significance of these two loci, single deletions of each PTS EII and P-Bgl gene, and a double deletion of both P-Bgl genes were constructed using the upp-based counter-selectable gene replacement system (Table 2) and the growth phenotypes of the mutant strains were analyzed (FIG. 3). Phenotypic growth analyses of deletion mutants of EII PTS transporters (FIGS. 3A, 3C, 3E, 3G, and 3I) and phospho-β-glucosidase (FIGS. 3B, 3D, 3F, 3H, and 3J) on the β-glucosides esculin, salicin, amygdalin and the disaccharides gentiobiose and cellobiose. The background Aupp strain is shown as a grey fill graph and the growth of the mutant strains is shown as: PTS EIIC (LBA0227, pink triangle), the phospho-β-glucosidase (LBA0225, light blue triangles), the PTS EIICBA (LBA0725, yellow squares), the second phospho-β-glucosidase (LBA0726, lilac squares) and the double phospho-β-glucosidase mutant (LBA0225/LBA0726, black stars). The color scheme is consistent with that used for the gene loci in FIG. 2.

Row | Compound | growth on compound (OD600 not usable) [1] | solubility [2] | aglycone / main metabolite identified in culture supernatant ([3]; L. acidophilus NCFM growing on the glycoside, up to 24 h) | Catabolism based on MS ([3]; growth concentration 0.5% (w/v), qualitative: depletion of the plant glycoside and/or appearance of its metabolites) | growth of the ΔLBA0227 mutant (inactive EIIC) [4] | growth of the ΔLBA0726 mutant (P-Bgl) [5] | reduction of growth on inactivation of the EIICBA (LBA0725) [6] | growth of the ΔLBA0725 mutant (inactive PTS EIICBA) ([6]; compared with background Δupp strain)
1 | OC[C@H]1O[C@@H](Oc2cc(O)cc(/C=C/c3ccc(O)cc3)c2)[C@H](O)[C@@H](O)[C@@H]1O [Polydatin] | verified by production of lactate and metabolite analysis | poor solubility | resveratrol | Yes |  |  |  | 
2 | gentiobiose [reference compound] |  |  |  |  | abolished | unaffected | about 50% | moderately reduced
